# A melting point compilation (Tetko et al.; mined from patent text by program, amines drawn as free bases though some values may be those of a salt)
row,Structure (SMILES),melting point [°C]
1,Cc1cc(=O)n2c3c(cc(C(O)(C(F)(F)F)C(F)(F)F)cc13)CCC2,295 to 296
2,C=Cc1ccc(-c2nc(C)c3c(n2)sc2c(OCC)nc(N4CCNCC4)nc23)cc1,165 to 166
3,N#Cc1ccc(N=Nc2ccc(OCCO)c(C#N)c2)cc1,138
4,COc1cc(OS(C)(=O)=O)ccc1-c1nc2cc3c(cc2[nH]1)NC(=O)C3(C)C,233 to 235
5,O=C(COc1ccccc1)COc1ccccc1,55 to 57
6,Cc1c(C)c(N2CCN(c3ccc(S(C)=O)cc3)CC2)c(C)c2c1OC(C)(C)C2 (stereo unspecified),223 to 227
7,O=C(OCc1ccccc1)c1ccc(C#Cc2ccccc2)cc1OCc1ccccc1,98 to 100
8,O=C1N(Cc2nc3ncccc3o2)c2ccccc2C12COc1cc3c(cc12)OCO3 (stereo unspecified),202 to 204
9,CC1(Cn2c(=O)oc3ccc(Br)cc32)Cn2cc([N+](=O)[O-])nc2O1 (stereo unspecified),243 to 246
10,CC(=O)c1ccc(C(Br)C(=O)OC(C)(C)C)cc1 (stereo unspecified),54 to 56
11,CCCCCCCCCCCC(CC1OC(=O)C1CCCCCC)OC(=O)C(N)CC(C)C (stereo unspecified),27 to 30
12,COc1ccc2c(c1OC)CC(c1ccccc1)CC2C#N (stereo unspecified),118 to 121
13,CN(C)C(=O)c1nc2n(n1)-c1ccc(Cl)cc1C(c1ccccc1F)=NC2,180 to 182
14,Nc1nc2c(ncn2CCC(COCc2ccccc2)COCc2ccccc2)c(=O)[nH]1,210 to 224
15,COC(=O)c1ccc(CBr)c(CBr)c1,74 to 75
16,CC(C)(C)OC(=O)NC1CCC(=O)NC1=O (stereo unspecified),214 to 215
17,C=CCNc1c(C(=O)OCC)cnc2cn(C)nc12,140 to 143
18,O=S1(=O)NC(C2=CCCCC2)Nc2cc(Cl)ccc21 (stereo unspecified),252 to 254
19,Nc1nc2c(s1)CCN(CC=Cc1ccccc1F)CC2,96 to 102
20,COC(=O)c1cc(C)sc1Nc1ccc(F)cc1[N+](=O)[O-],149 to 151
21,COc1cc(C(=O)NCc2ccc(-c3csc(N)n3)s2)cc(OC)c1OC,217
22,Nc1c(C(=O)c2cccc(Br)c2)[nH]c2cc(Cl)ccc12,142 to 143
23,Nc1nc2c(s1)CCN(CC=Cc1cccc(Cl)c1)CC2,132 to 136
24,O=C(CCC(=O)N1CCC[C@H]1C(=O)O)c1ccc(Br)cc1,138 to 139
25,CCOc1ccc(-n2c(N)cc(=O)nc2Nc2ccccc2)cc1,114 to 118
26,COc1ccc(-c2cc3cc(F)c(F)cc3[nH]2)cc1NC(=S)Nc1cccc(C(=O)O)c1,221 to 223

row,Structure (SMILES),melting point [°C]
1,CC(C)S(=O)(=O)c1ccc(Oc2ccc(Cl)c(Cl)c2)nc1,91 to 92
2,COc1ccc(Cl)cc1C(=O)c1cc(C(F)(F)F)ccc1NC(=O)OC(C)(C)C,148 to 150
3,O=C1CCCc2cc(F)cc(Sc3ccccc3)c21,112 to 113
4,CCCCn1c(=O)c2c(NC)n(C)nc2n(Cc2ccccc2)c1=O,146 to 148
5,O=C(O)C(=O)CC(=O)c1cn(Cc2ccncc2)c2ccccc2c1=O,> 300
6,ClC1=NC(C2CC2)Nc2cscc21 (stereo unspecified),86.5 to 88.5
7,FC(F)(F)c1ccc(OCCCc2cn(C(c3ccccc3)(c3ccccc3)c3ccccc3)cn2)cc1,150 to 151
8,Nc1nc2ccccc2n1S(=O)(=O)C=Cc1ccccc1,191
9,COc1ccc(C(=O)CCCCCBr)c(Cl)c1Cl,52 to 53
10,CCOC(=O)C(=CNc1ccnn1Cc1ccncc1)C(=O)OCC,95 to 97
11,O=C1Cc2ccccc2N1NCCCc1ccncc1F,114 to 116
12,COc1ccc(S(=O)(=O)Nc2ccc(C)cc2)c2c1[nH]c1ccccc12,199 to 203
13,O=C(N[C@@H](Cc1ccccc1)C[C@H](O)[C@H](Cc1ccccc1)NC(=O)OCc1cscn1)OCc1cscn1,64 to 66
14,O=C1N(Cc2nnc(C(F)(F)F)o2)c2ccccc2C12COc1cc3c(cc12)OCCO3 (stereo unspecified),137 to 139
15,COC(=O)Nc1ccc(C(=O)OC)cc1,177 to 178
16,CCOc1cc2c(cc1OC)C(c1ccc(C(=O)N(C(C)C)[C@@H](C)CO)cc1)=N[C@@H]1CCN(C)C[C@H]21,104 to 112
17,COc1ccc(Nc2nc(OCC3CCCCC3)c3[nH]cnc3n2)cc1,189 to 192
18,COc1cccc(CN2C(=O)CCc3cc(O)c(OC)cc32)c1,137 to 138
19,C=CCS(=O)(=O)c1ncc(Cl)cn1,84
20,CCN1CNS(=O)(=O)c2cc(Br)ccc21,122 to 124
21,COc1ccc(S(=O)(=O)CC(O)(CS(=O)(=O)c2ccc(OC)cc2)C(=O)NO)cc1,75 to 80
22,CCOC(=O)C(C(=O)COC(C)C)C1c2ccccc2C(=O)N1c1ccc2ccc(Cl)nc2n1 (stereo unspecified),205
23,CCOc1cc(COc2nn(Cc3ccccc3)cc2C=O)ccc1OCc1nc(-c2ccco2)oc1C,144 to 145
24,CCOC(=O)c1cnc(C)nc1NCc1ccc(-c2ccccc2-c2nnnn2C(c2ccccc2)(c2ccccc2)c2ccccc2)cc1,155 to 156
25,Cc1ccc(OC2=C(Oc3ccc(C)c(C)c3)C(F)(F)C(F)(F)C2(F)F)cc1C,65 to 67
